Reference: ChEMBL document CHEMBL1147609, “Comparison of 2-phenylspiroindenes and 2-phenylspiroindenediones as estrogen receptor ligands--modeling and binding data don't agree!” (Bioorg Med Chem Lett, 2004)

Legend:
Estrogen receptor beta = Estrogen receptor beta (Homo sapiens, UniProt Q92731); assay: Binding affinity for estrogen receptor beta
Estrogen receptor = target: T1, Estrogen receptor (Homo sapiens, UniProt P03372); assay: Binding affinity for estrogen receptor alpha
T1 sequence (P03372 whole entry): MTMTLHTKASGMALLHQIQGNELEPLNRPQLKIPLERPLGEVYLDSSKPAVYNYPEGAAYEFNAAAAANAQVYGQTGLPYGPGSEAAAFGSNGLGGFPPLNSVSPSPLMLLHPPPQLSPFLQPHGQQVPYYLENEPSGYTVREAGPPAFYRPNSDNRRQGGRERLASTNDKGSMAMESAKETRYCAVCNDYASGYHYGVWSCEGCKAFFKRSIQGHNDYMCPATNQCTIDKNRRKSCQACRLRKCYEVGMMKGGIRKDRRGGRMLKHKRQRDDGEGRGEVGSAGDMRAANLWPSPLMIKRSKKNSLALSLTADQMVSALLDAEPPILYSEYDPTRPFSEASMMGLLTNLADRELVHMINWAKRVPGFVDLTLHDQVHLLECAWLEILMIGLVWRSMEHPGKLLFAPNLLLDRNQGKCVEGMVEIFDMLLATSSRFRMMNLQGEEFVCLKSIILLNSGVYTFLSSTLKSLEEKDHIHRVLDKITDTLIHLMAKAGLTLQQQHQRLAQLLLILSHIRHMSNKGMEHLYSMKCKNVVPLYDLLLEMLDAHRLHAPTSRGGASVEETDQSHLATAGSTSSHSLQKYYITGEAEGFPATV

Chain of Estrogen receptor beta (Q92731 whole entry): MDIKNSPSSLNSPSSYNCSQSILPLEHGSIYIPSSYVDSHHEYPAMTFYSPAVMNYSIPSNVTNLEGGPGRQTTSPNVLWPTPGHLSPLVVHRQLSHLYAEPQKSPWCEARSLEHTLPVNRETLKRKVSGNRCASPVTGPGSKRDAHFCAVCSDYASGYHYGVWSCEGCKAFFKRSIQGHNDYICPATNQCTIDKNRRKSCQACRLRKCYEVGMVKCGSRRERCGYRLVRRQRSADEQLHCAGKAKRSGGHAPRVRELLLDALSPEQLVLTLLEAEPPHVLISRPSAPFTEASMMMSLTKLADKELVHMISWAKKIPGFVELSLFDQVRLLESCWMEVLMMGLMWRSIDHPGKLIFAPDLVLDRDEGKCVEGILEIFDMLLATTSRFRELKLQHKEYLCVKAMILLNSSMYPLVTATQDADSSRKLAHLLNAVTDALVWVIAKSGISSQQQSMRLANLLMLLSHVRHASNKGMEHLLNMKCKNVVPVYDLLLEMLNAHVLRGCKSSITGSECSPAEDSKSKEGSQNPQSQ

| Structure (SMILES) | IC50 (Estrogen receptor beta) [nM] | IC50 (Estrogen receptor) [nM] |
| --- | --- | --- |
| Oc1cccc(C2=Cc3cc(O)ccc3C23Cc2ccccc2C3)c1 | 28 | 35 |
| O=C1c2ccccc2C(=O)C12C(c1ccc(O)cc1)=Cc1cc(O)ccc12 | 103 | 91 |
| O=C1c2ccccc2C(=O)C12C(c1cccc(O)c1)=Cc1cc(O)ccc12 | 329 | 366 |
| Oc1ccc(C2=Cc3cc(O)ccc3C23Cc2ccc(OCCN4CCCCC4)cc2C3)cc1 (centres undefined) | 1.8 |  |
| O=C1c2ccc(OCCN3CCCCC3)cc2C(=O)C12C(c1ccc(O)cc1)=Cc1cc(O)ccc12 (centres undefined) | 223 | 172 |
